Among the data in patent US8912189B2, “Pyridopyrazine derivatives and their use” (Aeterna Zentaris GmbH, priority 2011, dated 2014) are melting point values, retold here.

By melting point is commonly meant the temperature of the solid-liquid transition. `CCNC(=O)Nc1ccc2ncc(-c3cnn(Cc4ccc(C#N)cc4)c3)nc2n1` [Compound 10, 1-{3-[1-(4-Cyano-benzyl)-1H-pyrazol-4-yl]-pyrido[2,3-b]pyrazin-6-yl}-3-ethyl-urea] gave a melting point of 208 to 215 °C.
The same measure for `CCNC(=O)Nc1ccc2ncc(-c3ccc(CO)s3)nc2n1` [Compound 396, 1-Ethyl-3-[3-(5-hydroxymethyl-thiophen-2-yl)-pyrido[2,3-b]pyrazin-6-yl]-urea]: 222 °C; for `CCNC(=O)Nc1ccc2ncc(-c3cnn(Cc4ccc(F)c(Cl)c4)c3)nc2n1` [Compound 8, 1-{3-[1-(3-Chloro-4-fluoro-benzyl)-1H-pyrazol-4-yl]-pyrido[2,3-b]pyrazin-6-yl}-3-ethyl-urea]: 214 to 219 °C.
The molecule `CCNC(=S)Nc1ccc2ncc(-c3cnn(Cc4ccc(C)cc4)c3)nc2n1` [Compound 20, 1-Ethyl-3-{3-[1-(4-methyl-benzyl)-1H-pyrazol-4-yl]-pyrido[2,3-b]pyrazin-6-yl}-thiourea] came in with a melting point of 241 °C.
The same measure for `CCNC(=O)Nc1ccc2ncc(-c3cnn(Cc4cc(OC)c(OC)c(OC)c4)c3)nc2n1` [Compound 1, 1-Ethyl-3-{3-[1-(3,4,5-trimethoxy-benzyl)-1H-pyrazol-4-yl]-pyrido[2,3-b]pyrazin-6-yl}-urea]: 219 °C; for `CCNC(=S)Nc1ccc2ncc(-c3cnn(Cc4ccc5c(c4)OCO5)c3)nc2n1` [Compound 5, 1-[3-(1-Benzo[1,3]dioxol-5-ylmethyl-1H-pyrazol-4-yl)-pyrido[2,3-b]pyrazin-6-yl]-3-ethyl-thiourea]: 244 °C.
The same measure for `CCNC(=O)Nc1ccc2ncc(-c3csc(C(=O)O)c3)nc2n1` [Compound 212, 4-[6-(3-Ethyl-ureido)-pyrido[2,3-b]pyrazin-3-yl]-thiophene-2-carboxylic acid]: 250 °C (dec.); for `COCNC(=S)Nc1ccc2ncc(-c3cnn(Cc4ccc(OC)c(OC)c4)c3)nc2n1` [Compound 35, 1-{3-[1-(3,4-Dimethoxy-benzyl)-1H-pyrazol-4-yl]-pyrido[2,3-b]pyrazin-6-yl}-3-methoxymethyl-thiourea]: 188 °C; for `CCNC(=S)Nc1ccc2ncc(-c3cnn(Cc4ccc(Cl)cc4)c3)nc2n1` [Compound 50, 1-{3-[1-(4-Chloro-benzyl)-1H-pyrazol-4-yl]-pyrido[2,3-b]pyrazin-6-yl}-3-ethyl-thiourea]: 249 °C.
Next, `CCNC(=O)Nc1ccc2ncc(-c3cnn(Cc4cccc(OCCOC)c4)c3)nc2n1` [Compound 66, 1-Ethyl-3-(3-{1-[3-(2-methoxy-ethoxy)-benzyl]-1H-pyrazol-4-yl}-pyrido[2,3-b]pyrazin-6-yl)-urea]: 201 °C.
`CCNC(=O)Nc1ccc2ncc(-c3cnn(Cc4ccc(OC(F)(F)F)cc4)c3)nc2n1` [Compound 6, 1-Ethyl-3-{3-[1-(4-trifluoromethoxy-benzyl)-1H-pyrazol-4-yl]-pyrido[2,3-b]pyrazin-6-yl}-urea] had a melting point of 231 °C.
The same measure for `CCNC(=O)Nc1ccc2ncc(-c3cnn(Cc4ccc(OC(F)F)cc4)c3)nc2n1` [Compound 11, 1-{3-[1-(4-Difluoromethoxy-benzyl)-1H-pyrazol-4-yl]-pyrido[2,3-b]pyrazin-6-yl}-3-ethyl-urea]: 239 °C; for `CCNC(=O)Nc1ccc2ncc(-c3cnn(Cc4cccc(C)c4)c3)nc2n1` [Compound 13, 1-Ethyl-3-{3-[1-(3-methyl-benzyl)-1H-pyrazol-4-yl]-pyrido[2,3-b]pyrazin-6-yl}-urea]: 208 to 210 °C.
With `CCNC(=O)Nc1ccc2ncc(-c3cnn(Cc4ccc(O)c(OC)c4)c3)nc2n1` [Compound 54, 1-Ethyl-3-{3-[1-(4-hydroxy-3-methoxy-benzyl)-1H-pyrazol-4-yl]-pyrido[2,3-b]pyrazin-6-yl}-urea], the melting point was 237 °C.
The same measure for `CCNC(=S)Nc1ccc2ncc(-c3cnn(Cc4cccc(OC)c4OC)c3)nc2n1` [Compound 26, 1-{3-[1-(2,3-Dimethoxy-benzyl)-1H-pyrazol-4-yl]-pyrido[2,3-b]pyrazin-6-yl}-3-ethyl-thiourea]: 218 to 222 °C; for `CCNC(=S)Nc1ccc2ncc(-c3cnn(Cc4cc(OC)cc(OC)c4)c3)nc2n1` [Compound 39, 1-{3-[1-(3,5-Dimethoxy-benzyl)-1H-pyrazol-4-yl]-pyrido[2,3-b]pyrazin-6-yl}-3-ethyl-thiourea]: 230 °C; for `CCNC(=O)Nc1ccc2ncc(-c3cnn(Cc4cccc(OC(F)F)c4)c3)nc2n1` [Compound 3, 1-{3-[1-(3-Difluoromethoxy-benzyl)-1H-pyrazol-4-yl]-pyrido[2,3-b]pyrazin-6-yl}-3-ethyl-urea]: 198 °C.
The same measure for `CCNC(=S)Nc1ccc2ncc(-c3cnn(Cc4cc(OC)ccc4OC)c3)nc2n1` [Compound 19, 1-{3-[1-(2,5-Dimethoxy-benzyl)-1H-pyrazol-4-yl]-pyrido[2,3-b]pyrazin-6-yl}-3-ethyl-thiourea]: 225 °C; for `CCNC(=O)Nc1ccc2ncc(-c3cnn(Cc4ccc(Br)c(C)c4)c3)nc2n1` [Compound 22, 1-{3-[1-(4-Bromo-3-methyl-benzyl)-1H-pyrazol-4-yl]-pyrido[2,3-b]pyrazin-6-yl}-3-ethyl-urea]: 250 to 252 °C; for `CCNC(=S)Nc1ccc2ncc(-c3cnn(Cc4cccc(N(C)C)c4)c3)nc2n1` [Compound 37, 1-{3-[1-(3-Dimethylamino-benzyl)-1H-pyrazol-4-yl]-pyrido[2,3-b]pyrazin-6-yl}-3-ethyl-thiourea]: 215 °C.
As for `CCNC(=S)Nc1ccc2ncc(-c3cnn(Cc4cc(OC)c(OC)c(OC)c4)c3)nc2n1` [Compound 46, 1-Ethyl-3-{3-[1-(3,4,5-trimethoxy-benzyl)-1H-pyrazol-4-yl]-pyrido[2,3-b]pyrazin-6-yl}-thiourea], the melting point is 232 °C.
The same measure for `COCCNC(=S)Nc1ccc2ncc(-c3cnn(Cc4ccc(OC)c(OC)c4)c3)nc2n1` [Compound 7, 1-{3-[1-(3,4-Dimethoxy-benzyl)-1H-pyrazol-4-yl]-pyrido[2,3-b]pyrazin-6-yl}-3-(2-methoxy-ethyl)-thiourea]: 198 °C.
`CCNC(=S)Nc1ccc2ncc(-c3cnn(Cc4cc(C)cc(F)c4)c3)nc2n1` [Compound 25, 1-Ethyl-3-{3-[1-(3-fluoro-5-methyl-benzyl)-1H-pyrazol-4-yl]-pyrido[2,3-b]pyrazin-6-yl}-thiourea]: the melting point lay in the range of 257 to 259 °C.
The same measure for `COCCNC(=S)Nc1ccc2ncc(-c3cnn(Cc4ccccc4)c3)nc2n1` [Compound 31, 1-[3-(1-Benzyl-1H-pyrazol-4-yl)-pyrido[2,3-b]pyrazin-6-yl]-3-(2-methoxy-ethyl)-thiourea]: 219 °C; for `CCNC(=S)Nc1ccc2ncc(-c3cnn(Cc4ccc(OC)c(O)c4)c3)nc2n1` [Compound 57, 1-Ethyl-3-{3-[1-(3-hydroxy-4-methoxy-benzyl)-1H-pyrazol-4-yl]-pyrido[2,3-b]pyrazin-6-yl}-thiourea]: 230 °C.
The same measure for `CCNC(=S)Nc1ccc2ncc(-c3cnn(Cc4ccccc4C)c3)nc2n1` [Compound 52, 1-Ethyl-3-{3-[1-(2-methyl-benzyl)-1H-pyrazol-4-yl]-pyrido[2,3-b]pyrazin-6-yl}-thiourea]: 252 to 255 °C; for `CCNC(=S)Nc1ccc2ncc(-c3cnn(Cc4cccc(C)c4F)c3)nc2n1` [Compound 48, 1-Ethyl-3-{3-[1-(2-fluoro-3-methyl-benzyl)-1H-pyrazol-4-yl]-pyrido[2,3-b]pyrazin-6-yl}-thiourea]: 242 to 245 °C; for `COCCNC(=S)Nc1ccc2ncc(-c3cnn(Cc4cccc(OC)c4)c3)nc2n1` [Compound 32, 1-{3-[1-(3-Methoxy-benzyl)-1H-pyrazol-4-yl]-pyrido[2,3-b]pyrazin-6-yl}-3-(2-methoxy-ethyl)-thiourea]: 215 °C.
On to `CCNC(=S)Nc1ccc2ncc(-c3cnn(Cc4ccc(OC)cc4)c3)nc2n1` [Compound 23, 1-Ethyl-3-{3-[1-(4-methoxy-benzyl)-1H-pyrazol-4-yl]-pyrido[2,3-b]pyrazin-6-yl}-thiourea], for which the melting point worked out at 237 °C.
The same measure for `CCNC(=S)Nc1ccc2ncc(-c3cnn(Cc4cccc(O)c4)c3)nc2n1` [Compound 36, 1-Ethyl-3-{3-[1-(3-hydroxy-benzyl)-1H-pyrazol-4-yl]-pyrido[2,3-b]pyrazin-6-yl}-thiourea]: 239 °C.
`CCNC(=O)Nc1ccc2ncc(-c3cnn(CCCCc4ccccc4)c3)nc2n1` [Compound 16, 1-Ethyl-3-{3-[1-(4-phenyl-butyl)-1H-pyrazol-4-yl]-pyrido[2,3-b]pyrazin-6-yl}-urea] yielded a melting point of 182 °C.
Next, `CCNC(=O)Nc1ccc2ncc(-c3cnn(Cc4cccc(S(C)(=O)=O)c4)c3)nc2n1` [Compound 64, 1-Ethyl-3-{3-[1-(3-methanesulfonyl-benzyl)-1H-pyrazol-4-yl]-pyrido[2,3-b]pyrazin-6-yl}-urea]: 218 °C; `Cc1cccc(Cn2cc(-c3cnc4ccc(NC(=S)NCC(F)(F)F)nc4n3)cn2)c1` [Compound 51, 1-{3-[1-(3-Methyl-benzyl)-1H-pyrazol-4-yl]-pyrido[2,3-b]pyrazin-6-yl}-3-(2,2,2-trifluoro-ethyl)-thiourea]: 249 °C.
The same measure for `CCNC(=O)Nc1ccc2ncc(-c3cnn(CCCc4ccccc4)c3)nc2n1` [Compound 9, 1-Ethyl-3-{3-[1-(3-phenyl-propyl)-1H-pyrazol-4-yl]-pyrido[2,3-b]pyrazin-6-yl}-urea]: 251 °C; for `CCNC(=O)Nc1ccc2ncc(-c3cnn(CCC(N)=O)c3)nc2n1` [Compound 404, 3-{4-[6-(3-Ethyl-ureido)-pyrido[2,3-b]pyrazin-3-yl]-pyrazol-1-yl}-propionamide]: 247 °C.
In turn, `CCNC(=O)Nc1ccc2ncc(-c3ccoc3)nc2n1` [Compound 432, 1-Ethyl-3-(3-furan-3-yl-pyrido[2,3-b]pyrazin-6-yl)-urea] gave a melting point of 240 °C.
The same measure for `CCNC(=S)Nc1ccc2ncc(-c3cnn(Cc4ccc(F)c(Cl)c4)c3)nc2n1` [Compound 38, 1-{3-[1-(3-Chloro-4-fluoro-benzyl)-1H-pyrazol-4-yl]-pyrido[2,3-b]pyrazin-6-yl}-3-ethyl-thiourea]: 235 to 238 °C.
